{"source": "patent US9961897B2", "about": "“Fungicidal pyrazoles” (E. I. DU PONT DE NEMOURS AND COMPANY, priority 2013, dated 2018)", "format_in_all_cases": "in vivo", "key": {"Septoria nodorum": {"test_system": "Septoria nodorum", "experiment": "Test E: Septoria glume blotch, preventive spray on wheat seedlings, visual disease rating", "conditions": "200 ppm test suspension sprayed to run-off on wheat seedlings; 100 = 100% disease control, 0 = no control", "text": "(§1) General protocol for preparing test suspensions for Tests A-E: the test compounds were first dissolved in acetone in an amount equal to 3% of the final volume and then suspended at the desired concentration (in ppm) in acetone and purified water (50/50 mix by volume) containing 250 ppm of the surfactant Trem® 014 (polyhydric alcohol esters). The resulting test suspensions were then used in Tests A-E. Spraying a 200 ppm test suspension to the point of run-off on the test plants was the equivalent of a rate of 800 g/ha.\n(§2) The test suspension was sprayed to the point of run-off on wheat seedlings. The following day the seedlings were inoculated with a spore suspension of Septoria nodorum (the causal agent of Septoria glume blotch) and incubated in a saturated atmosphere at 24° C. for 48 h, and then moved to a growth chamber at 20° C. for 9 days, after which time visual disease ratings were made.\n(§3) Results for Tests A-E are given in Table A. In the Table, a rating of 100 indicates 100% disease control and a rating of 0 indicates no disease control (relative to the controls). All results are for compounds tested at 200 ppm except where followed by an asterisk “*” which indicates the compound was tested at 250 ppm. A dash (-) indicates no test results."}, "[1]": {"test_system": "Blumeria graminis f. sp. tritici", "experiment": "Test D: wheat powdery mildew, preventive spray on wheat seedlings, visual disease rating", "conditions": "100 = 100% disease control, 0 = no control", "text": "as §1\nThe test suspension was sprayed to the point of run-off on wheat seedlings. The following day the seedlings were inoculated with a spore dust of Blumeria graminis f. sp. tritici, also known as Erysiphe graminis f. sp. tritici (the causal agent of wheat powdery mildew) and incubated in a growth chamber at 20° C. for 8 days, after which time visual disease ratings were made.\nas §3"}, "Botrytis cinerea": {"test_system": "Botrytis cinerea", "experiment": "Test C: tomato Botrytis, preventive spray on tomato seedlings, visual disease rating", "conditions": "100 = 100% disease control, 0 = no control", "text": "as §1\nas §2, with “tomato” for “wheat”, “Botrytis cinerea” for “Septoria nodorum”, “tomato Botrytis)” for “Septoria glume blotch)”, “20°” for “24°”, “24°” for “20°”, “3” for “9”\nas §3"}, "[2]": {"test_system": "Puccinia recondita f. sp. tritici", "experiment": "Test A: wheat leaf rust, preventive spray on wheat seedlings, visual disease rating", "conditions": "100 = 100% disease control, 0 = no control", "text": "as §1\nas §2, with “Puccinia recondita f. sp. tritici” for “Septoria nodorum”, “wheat leaf rust)” for “Septoria glume blotch)”, “20°” for “24°”, “24” for “48”, “6” for “9”\nas §3"}, "Septoria tritici": {"test_system": "Septoria tritici", "experiment": "Test B: wheat leaf blotch, preventive spray on wheat seedlings, visual disease rating", "conditions": "100 = 100% disease control, 0 = no control", "text": "as §1\nas §2, with “tritici” for “nodorum”, “wheat leaf” for “Septoria glume”, “19” for “9”\nas §3"}, "[3]": {"conditions": "200 ppm test suspension sprayed to run-off on wheat seedlings"}, "[4]": {"conditions": "200 ppm test suspension sprayed to run-off on tomato seedlings"}, "[5]": {"conditions": "250 ppm (asterisk) test suspension sprayed to run-off on wheat seedlings"}, "[6]": {"conditions": "250 ppm (asterisk) test suspension sprayed to run-off on tomato seedlings"}}, "note": "Marks after values point to notes of the source that are not given here.", "data": [{"smiles": "Cc1nn(C)c(-c2c(F)cc(/C=C/C3CC3)cc2F)c1C(O)c1ccc(F)cc1Cl", "note": "(stereo not drawn) [Compound 1]", "values": [{"measurement": "Test E disease control rating", "setting": "Septoria nodorum", "result": 0, "unit": "%"}, {"measurement": "Test D disease control rating", "setting": "[1]; [3]", "result": 98, "unit": "%"}, {"measurement": "Test C disease control rating", "setting": "Botrytis cinerea; [4]", "result": 0, "unit": "%"}, {"measurement": "Test A disease control rating", "setting": "[2]; [3]", "result": 68, "unit": "%"}]}, {"smiles": "Cc1nn(C)c(-c2c(F)cc(C#CC3CC3)cc2F)c1C(O)c1ccc(F)cc1Cl", "note": "(stereo not drawn) [Compound 2]", "values": [{"measurement": "Test E disease control rating", "setting": "Septoria nodorum", "result": 100, "unit": "%"}, {"measurement": "Test D disease control rating", "setting": "[1]; [3]", "result": 98, "unit": "%"}, {"measurement": "Test C disease control rating", "setting": "Botrytis cinerea; [4]", "result": 98, "unit": "%"}, {"measurement": "Test A disease control rating", "setting": "[2]; [3]", "result": 95, "unit": "%"}]}, {"smiles": "Cc1nn(C)c(-c2c(F)cc(-n3cccn3)cc2F)c1C(O)c1ccc(F)cc1Cl", "note": "(stereo not drawn) [Compound 3, α-(2-chloro-4-fluorophenyl)-5-[2,6-difluoro-4-(1H-pyrazol-1-yl)phenyl]-1,3-dimethyl-1H-pyrazole-4-methanol]", "values": [{"measurement": "Test E disease control rating", "setting": "Septoria nodorum", "result": 98, "unit": "%"}, {"measurement": "Test D disease control rating", "setting": "[1]; [3]", "result": 81, "unit": "%"}, {"measurement": "Test C disease control rating", "setting": "Botrytis cinerea; [4]", "result": 59, "unit": "%"}, {"measurement": "Test A disease control rating", "setting": "[2]; [3]", "result": 68, "unit": "%"}]}, {"smiles": "Cc1nn(C)c(-c2c(F)cc(-n3ccc(C(F)(F)F)n3)cc2F)c1C(O)c1ccc(F)cc1Cl", "note": "(stereo not drawn) [Compound 4]", "values": [{"measurement": "Test E disease control rating", "setting": "Septoria nodorum", "result": 0, "unit": "%"}, {"measurement": "Test D disease control rating", "setting": "[1]; [3]", "result": 0, "unit": "%"}, {"measurement": "Test C disease control rating", "setting": "Botrytis cinerea; [4]", "result": 0, "unit": "%"}, {"measurement": "Test A disease control rating", "setting": "[2]; [3]", "result": 0, "unit": "%"}]}, {"smiles": "C#CCOc1cc(F)c(-c2c(C(O)c3ccc(F)cc3Cl)c(C)nn2C)c(F)c1", "note": "(stereo not drawn) [Compound 5]", "values": [{"measurement": "Test B disease control rating", "setting": "Septoria tritici; [3]", "result": 99, "unit": "%"}, {"measurement": "Test D disease control rating", "setting": "[1]; [3]", "result": 99, "unit": "%"}, {"measurement": "Test C disease control rating", "setting": "Botrytis cinerea; [4]", "result": 98, "unit": "%"}, {"measurement": "Test A disease control rating", "setting": "[2]; [3]", "result": 100, "unit": "%"}]}, {"smiles": "C=CCOc1cc(F)c(-c2c(C(O)c3ccc(F)cc3Cl)c(C)nn2C)c(F)c1", "note": "(stereo not drawn) [Compound 6]", "values": [{"measurement": "Test B disease control rating", "setting": "Septoria tritici; [3]", "result": 99, "unit": "%"}, {"measurement": "Test D disease control rating", "setting": "[1]; [3]", "result": 95, "unit": "%"}, {"measurement": "Test C disease control rating", "setting": "Botrytis cinerea; [4]", "result": 99, "unit": "%"}, {"measurement": "Test A disease control rating", "setting": "[2]; [3]", "result": 99, "unit": "%"}]}, {"smiles": "Cc1nn(C)c(-c2c(F)cc(C3CO3)cc2F)c1C(O)c1ccc(F)cc1Cl", "note": "(stereo not drawn) [Compound 8]", "values": [{"measurement": "Test B disease control rating", "setting": "Septoria tritici; [3]", "result": 95, "unit": "%"}, {"measurement": "Test E disease control rating", "setting": "Septoria nodorum", "result": 0, "unit": "%"}, {"measurement": "Test D disease control rating", "setting": "[1]; [3]", "result": 27, "unit": "%"}, {"measurement": "Test C disease control rating", "setting": "Botrytis cinerea; [4]", "result": 30, "unit": "%"}, {"measurement": "Test A disease control rating", "setting": "[2]; [3]", "result": 90, "unit": "%"}]}, {"smiles": "Cc1nn(C)c(-c2c(F)cc(OCCC(C)C)cc2F)c1C(O)c1ccc(F)cc1Cl", "note": "(stereo not drawn) [Compound 9, α-(2-chloro-4-fluorophenyl)-5-[2,6-difluoro-4-(3-methylbutoxy)phenyl]-1,3-dimethyl-1H-pyrazole-4-methanol]", "values": [{"measurement": "Test B disease control rating", "setting": "Septoria tritici; [3]", "result": 87, "unit": "%"}, {"measurement": "Test E disease control rating", "setting": "Septoria nodorum", "result": 0, "unit": "%"}, {"measurement": "Test D disease control rating", "setting": "[1]; [5]", "result": "21* %"}, {"measurement": "Test C disease control rating", "setting": "Botrytis cinerea; [4]", "result": 0, "unit": "%"}, {"measurement": "Test A disease control rating", "setting": "[2]; [3]", "result": 9, "unit": "%"}]}, {"smiles": "Cc1nn(C)c(-c2c(F)cc(OCC3CC3)cc2F)c1C(O)c1ccc(F)cc1Cl", "note": "(stereo not drawn) [Compound 10, α-(2-chloro-4-fluorophenyl)-5-[4-(cyclopropylmethoxy)-2,6-difluorophenyl]-1,3-dimethyl-1H-pyrazole-4-methanol]", "values": [{"measurement": "Test B disease control rating", "setting": "Septoria tritici; [3]", "result": 96, "unit": "%"}, {"measurement": "Test E disease control rating", "setting": "Septoria nodorum", "result": 100, "unit": "%"}, {"measurement": "Test D disease control rating", "setting": "[1]; [3]", "result": 94, "unit": "%"}, {"measurement": "Test C disease control rating", "setting": "Botrytis cinerea; [4]", "result": 12, "unit": "%"}, {"measurement": "Test A disease control rating", "setting": "[2]; [3]", "result": 99, "unit": "%"}]}, {"smiles": "Cc1nn(C)c(-c2c(F)cc(/C=N/O)cc2F)c1C(O)c1ccc(F)cc1Cl", "note": "(stereo not drawn) [Compound 11]", "values": [{"measurement": "Test B disease control rating", "setting": "Septoria tritici; [3]", "result": 98, "unit": "%"}, {"measurement": "Test E disease control rating", "setting": "Septoria nodorum", "result": 0, "unit": "%"}, {"measurement": "Test D disease control rating", "setting": "[1]; [3]", "result": 69, "unit": "%"}, {"measurement": "Test C disease control rating", "setting": "Botrytis cinerea; [4]", "result": 15, "unit": "%"}, {"measurement": "Test A disease control rating", "setting": "[2]; [3]", "result": 86, "unit": "%"}]}, {"smiles": "CCCCOc1cc(F)c(-c2c(C(O)c3ccc(F)cc3Cl)c(C)nn2C)c(F)c1", "note": "(stereo not drawn) [Compound 13]", "values": [{"measurement": "Test B disease control rating", "setting": "Septoria tritici; [3]", "result": 98, "unit": "%"}, {"measurement": "Test D disease control rating", "setting": "[1]; [3]", "result": 98, "unit": "%"}, {"measurement": "Test C disease control rating", "setting": "Botrytis cinerea; [4]", "result": 0, "unit": "%"}, {"measurement": "Test A disease control rating", "setting": "[2]; [3]", "result": 0, "unit": "%"}]}, {"smiles": "CO/N=C/c1cc(F)c(-c2c(C(O)c3ccc(F)cc3Cl)c(C)nn2C)c(F)c1", "note": "(stereo not drawn) [Compound 14]", "values": [{"measurement": "Test B disease control rating", "setting": "Septoria tritici; [3]", "result": 99, "unit": "%"}, {"measurement": "Test D disease control rating", "setting": "[1]; [3]", "result": 95, "unit": "%"}, {"measurement": "Test C disease control rating", "setting": "Botrytis cinerea; [4]", "result": 39, "unit": "%"}, {"measurement": "Test A disease control rating", "setting": "[2]; [3]", "result": 100, "unit": "%"}]}, {"smiles": "Cc1nn(C)c(-c2c(F)cc(OCC3CCCO3)cc2F)c1C(O)c1ccc(F)cc1Cl", "note": "(stereo not drawn) [Compound 15]", "values": [{"measurement": "Test B disease control rating", "setting": "Septoria tritici; [5]", "result": "100* %"}, {"measurement": "Test D disease control rating", "setting": "[1]; [5]", "result": "95* %"}, {"measurement": "Test C disease control rating", "setting": "Botrytis cinerea; [6]", "result": "98* %"}, {"measurement": "Test A disease control rating", "setting": "[2]; [5]", "result": "98* %"}]}, {"smiles": "Cc1nn(C)c(-c2c(F)cc(OCC3OCCO3)cc2F)c1C(O)c1ccc(F)cc1Cl", "note": "(stereo not drawn) [Compound 19]", "values": [{"measurement": "Test B disease control rating", "setting": "Septoria tritici; [5]", "result": "99* %"}, {"measurement": "Test D disease control rating", "setting": "[1]; [5]", "result": "95* %"}, {"measurement": "Test C disease control rating", "setting": "Botrytis cinerea; [6]", "result": "100* %"}, {"measurement": "Test A disease control rating", "setting": "[2]; [5]", "result": "100* %"}]}]}
